Measured values published in patent US9345740B2, “IAP antagonists” (BRISTOL-MYERS SQUIBB COMPANY, priority 2012, dated 2016).

Experiments:
Format in all cases: binding
[1] = target: XIAP BIR2-3 (His-BIR2-3 (125-356, C202A/C213G, XIAP)) (Homo sapiens (Human), UniProt P98170, C202A/C213G)
[2] = target: XIAP BIR3 (His-BIR3 (241-356, XIAP)) (Homo sapiens (Human), UniProt P98170)
[3] = target: XIAP BIR2 (His-BIR2 (124-240/C202A/C213G)) (Homo sapiens (Human), UniProt P98170, C202A/C213G); test: XIAP-BIR2/SMAC Peptide AlphaScreen Assay; settings: footnote *: XIAP BIR2 alpha screen (printed in the BIR2-3 column)
Method: C. XIAP-BIR2/SMAC Peptide AlphaScreen Assay
Assays were performed in white, flat-bottom, 384-well ProxiPlates (Perkin Elmer). The final assay volume was 10 μL prepared from additions of His-BIR2 (124-240/C202A/C213G), Biotinylated SMAC peptide, and test compounds in assay buffer consisting of 25 mM Hepes, 100 mM NaCl, 0.1% BSA, and 5 mM CaCl2. The reaction was incubated at room temperature for 60 minutes. After 60 minutes, 2.5 μL of Alphascreen detection reagent (Perkin Elmer) was added to the reaction mixture and incubated at room temperature in the dark for 120 minutes. The Alphascreen signal generated by the reaction was detected on the Envision Plate Reader Inhibition data were calculated from an Alphascreen signal generated by the no protein control reactions for 100% inhibition and vehicle-only reactions for 0% inhibition. The final concentration of reagents in the assay was 50 nM His-BIR2 (124-240/C202A/C213G), 50 nM.
Biotinylated SMAC peptide, 4 μg/mL Alphascreen detection reagents, and 0.5% DMSO. Dose response curves were generated to determine the concentration required for inhibiting 50% of the activity (IC50). Compounds were dissolved at 10 mM in dimethylsulfoxide (DMSO) and evaluated at eleven concentrations. IC50 values were derived by non-linear regression analysis.

[4] = target: XIAP BIR3 (N-His-Tb-BIR3(241-356, XIAP)) (Homo sapiens (Human), UniProt P98170)
Chain of XIAP BIR3 (N-His-Tb-BIR3(241-356, XIAP)) (P98170 whole entry, looked up): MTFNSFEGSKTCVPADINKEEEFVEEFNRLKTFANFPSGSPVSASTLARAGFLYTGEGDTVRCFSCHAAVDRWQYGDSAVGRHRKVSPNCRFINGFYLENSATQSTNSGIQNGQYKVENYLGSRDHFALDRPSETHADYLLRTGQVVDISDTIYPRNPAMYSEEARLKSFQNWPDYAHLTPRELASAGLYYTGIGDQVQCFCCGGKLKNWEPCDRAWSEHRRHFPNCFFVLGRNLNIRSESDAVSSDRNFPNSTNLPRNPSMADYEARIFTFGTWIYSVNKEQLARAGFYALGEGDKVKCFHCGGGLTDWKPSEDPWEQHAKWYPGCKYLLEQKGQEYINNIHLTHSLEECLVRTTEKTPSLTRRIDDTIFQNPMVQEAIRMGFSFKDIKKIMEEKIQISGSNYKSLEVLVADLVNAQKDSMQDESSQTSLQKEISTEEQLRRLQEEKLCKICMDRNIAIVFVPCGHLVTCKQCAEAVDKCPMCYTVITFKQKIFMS

Chain of XIAP BIR3 (His-BIR3 (241-356, XIAP)) (P98170 whole entry, looked up): as above
Chain of XIAP BIR2-3 (His-BIR2-3 (125-356, C202A/C213G, XIAP)) (P98170 whole entry C202A/C213G, looked up): as the sequence (P98170 whole entry, looked up) above, with C202A, C213G counted along it
Chain of XIAP BIR2 (His-BIR2 (124-240/C202A/C213G)) (P98170 whole entry C202A/C213G, looked up): as the sequence (P98170 whole entry, looked up) above, with C202A, C213G counted along it

Question: With `CN[C@@H](C)C(=O)NC(Cc1ccc(-c2ccc(C(=O)NC3C[C@@H](C(=O)NC4CCCc5ccccc54)N(C(=O)[C@@H](NC(=O)[C@H](C)NC)C(C)(C)C)C3)cc2)cc1)C(=O)N1C[Si](C)(C)C[C@H]1C(=O)NC1CCCc2ccccc21` (stereo partly drawn) [Example 7] as the compound, how does the IC50 [1] read?
Answer: The IC50 was 307 nM.

Question: What about the IC50 [2] of the same compound?
Answer: The IC50 was 93 nM.

Question: With `CN[C@@H](C)C(=O)NC(Cc1ccc(C(=O)Nc2ccc(C(=O)N[C@H]3C[C@@H](C(=O)NC4CCCc5ccccc54)N(C(=O)[C@@H](NC(=O)[C@H](C)NC)C(C)(C)C)C3)cc2)cc1)C(=O)N1C[Si](C)(C)C[C@H]1C(=O)NC1CCCc2ccccc21` (stereo partly drawn) [Example 4] as the compound, how does the IC50 [1] read?
Answer: The IC50 was 4 nM.

Question: What about the IC50 [2] of the same compound?
Answer: The IC50 was 14 nM.

Question: What does the source list for `CN[C@@H](C)C(=O)NC(Cc1ccc(NC(=O)c2ccc(CO[C@H]3C[C@@H](C(=O)NC4CCCc5ccccc54)N(C(=O)[C@@H](NC(=O)[C@H](C)NC)C(C)(C)C)C3)cc2)cc1)C(=O)N1C[Si](C)(C)C[C@H]1C(=O)NC1CCCc2ccccc21` (stereo partly drawn) [Example 3, (R)-1-((S)-3-(4-(4-((((3S,5S)-1-((S)-3,3-Dimethyl-2-(S)-2-(methylamino)propanamido)butanoyl)-5-(((R)-1,2,3,4-tetrahydronaphthalen-1-yl)carbamoyl)pyrrolidin-3-yl)oxy)methyl)benzamido)phenyl)-(2-((S)-2-(methylamino)propanamido)propanoyl)-3,3-dimethyl-N—((R)-1,2,3,4-tetrahydronaphthalen-1-yl)-1,3-azasilolidine-5-carboxamide]?
Answer: IC50 [1]: 5 nM; IC50 [2]: 14 nM

Question: With `CN[C@@H](C)C(=O)N[C@@H](Cc1ccc(C#CC(=O)N[C@H]2C[C@@H](C(=O)N[C@@H]3CCCc4ccccc43)N(C(=O)[C@@H](NC(=O)[C@H](C)NC)C(C)(C)C)C2)cc1)C(=O)N1C[Si](C)(C)C[C@H]1C(=O)N[C@@H]1CCCc2ccccc21` [Example 8, (R)-1-((S)-3-(4-(3-(((3S,5S)-1-((S)-3,3-Dimethyl-2-((S)-2-(methylamino)propanamido)butanoyl)-5-(((R)-1,2,3,4-tetrahydronaphthalen-1-yl)carbamoyl)pyrrolidin-3-yl)amino)-3-oxoprop-1-yn-1-yl)phenyl)-2-((S)-2-(methylamino)propanamido)propanoyl)-3,3-dimethyl-N—((R)-1,2,3,4-tetrahydronaphthalen-1-yl)-1,3-azasilolidine-5-carboxamide] as the compound, how does the IC50 [1] read?
Answer: Its IC50 is 4 nM.

Question: And the IC50 [2]?
Answer: Its IC50 is 3 nM.

Question: Which IC50 [1] does the source give for `CN[C@@H](C)C(=O)N[C@@H](Cc1ccc(NC(=O)N[C@H]2C[C@@H](C(=O)N[C@@H]3CCCc4ccccc43)N(C(=O)[C@@H](NC(=O)[C@H](C)NC)C(C)(C)C)C2)cc1)C(=O)N1C[Si](C)(C)C[C@H]1C(=O)N[C@@H]1CCCc2ccccc21` [Example 2, (R)-1-((S)-3-(4-(3-((3S,5S)-1-((S)-3,3-Dimethyl-2-((S)-2-(methylamino)propanamido)butanoyl)-5-(((R)-1,2,3,4-tetrahydronaphthalen-1-yl)carbamoyl)pyrrolidin-3-yl)ureido)phenyl)-2-((S)-2-(methylamino)propanamido)propanoyl)-3,3-dimethyl-N—((R)-1,2,3,4-tetrahydronaphthalen-1-yl)-1,3-azasilolidine-5-carboxamide] here?
Answer: The IC50 was 6 nM.

Question: What about the IC50 [2] of the same compound?
Answer: The IC50 was 16 nM.

Question: Which results are given for `CN[C@@H](C)C(=O)NC(Cc1ccc(NC(=O)c2ccc(C(=O)N[C@H]3C[C@@H](C(=O)NC4CCCc5ccccc54)N(C(=O)[C@@H](NC(=O)[C@H](C)NC)C(C)(C)C)C3)cc2)cc1)C(=O)N1C[Si](C)(C)C[C@H]1C(=O)NC1CCCc2ccccc21` (stereo partly drawn) [Example 1]?
Answer: IC50 [1]: 4 nM; IC50 [2]: 12 nM

Question: Which results are given for `CN[C@@H](C)C(=O)N[C@@H](Cc1ccc(C#Cc2ccc(C(=O)N[C@H]3C[C@@H](C(=O)N[C@@H]4CCCc5ccccc54)N(C(=O)[C@@H](NC(=O)[C@H](C)NC)C(C)(C)C)C3)cc2)cc1)C(=O)N1C[Si](C)(C)C[C@H]1C(=O)N[C@@H]1CCCc2ccccc21` [Example 5, (R)-1-((S)-3-(4-((4-(((3S,5S)-1-((S)-3,3-Dimethyl-2-((S)-2-(methylamino)propanamido)butanoyl)-5-(((R)-1,2,3,4-tetrahydronaphthalen-1-yl)carbamoyl)pyrrolidin-3-yl)carbamoyl)phenyl)ethynyl)phenyl)-2-((S)-2-(methylamino)propanamido)propanoyl)-3,3-dimethyl-N—((R)-1,2,3,4-tetrahydronaphthalen-1-yl)-1,3-azasilolidine-5-carboxamide]?
Answer: IC50 [1]: 341 nM; IC50 [2]: 103 nM

Question: Which IC50 [1] does the source give for `CN[C@@H](C)C(=O)N[C@@H](Cc1ccc(C(=O)N[C@H]2C[C@@H](C(=O)N[C@@H]3CCCc4ccccc43)N(C(=O)[C@@H](NC(=O)[C@H](C)NC)C(C)(C)C)C2)cc1)C(=O)N1C[Si](C)(C)C[C@H]1C(=O)N[C@@H]1CCCc2ccccc21` [Example 10, (R)-1-((S)-3-(4-(((3S,5S)-1-((S)-3,3-dimethyl-2-((S)-2-(methylamino)propanamido)butanoyl)-5-(((R)-1,2,3,4-tetrahydronaphthalen-1-yl)carbamoyl)pyrrolidin-3-yl)carbamoyl)phenyl)-2-((S)-2-(methylamino)propanamido)propanoyl)-3,3-dimethyl-N-((R)-1,2,3,4-tetrahydronaphthalen-1-yl)-1,3-azasilolidine-5-carboxamide] here?
Answer: Its IC50 is 5 nM.

Question: And the IC50 [2]?
Answer: Its IC50 is 8 nM.

Question: How did the IC50 [1] turn out when `CN[C@@H](C)C(=O)N[C@@H](Cc1ccc(CCc2ccc(C(=O)N[C@H]3C[C@@H](C(=O)N[C@@H]4CCCc5ccccc54)N(C(=O)[C@@H](NC(=O)[C@H](C)NC)C(C)(C)C)C3)cc2)cc1)C(=O)N1C[Si](C)(C)C[C@H]1C(=O)N[C@@H]1CCCc2ccccc21` [Example 6, (R)-1-((S)-3-(4-(4-(((3S,5S)-1-((S)-3,3-Dimethyl-2-((S)-2-(methylamino)propanamido)butanoyl)-5-(((R)-1,2,3,4-tetrahydronaphthalen-1-yl)carbamoyl)pyrrolidin-3-yl)carbamoyl)phenethyl)phenyl)-2-((S)-2-(methylamino)propanamido)propanoyl)-3,3-dimethyl-N—((R)-1,2,3,4-tetrahydronaphthalen-1-yl)-1,3-azasilolidine-5-carboxamide] was run?
Answer: The IC50 was 205 nM.

Question: What about the IC50 [2] of the same compound?
Answer: Its IC50 is 84 nM.

Question: Which results are given for `CN[C@@H](C)C(=O)N[C@H](C(=O)N1C[C@@H](NC(=O)c2ccc(CN(C(=O)[C@@H]3C[Si](C)(C)CN3C(=O)[C@@H](NC(=O)[C@H](C)NC)C(C)(C)C)[C@H](C)c3cccc(F)c3F)cc2)C[C@H]1C(=O)N[C@@H]1CCCc2ccccc21)C(C)(C)C` [Example 12, (R)-N-((R)-1-(2,3-Difluorophenyl)ethyl)-1-((S)-3,3-dimethyl-2-((S)-2-(methylamino)propanamido)butanoyl)-N-(4-(((3S,5S)-1-((S)-3,3-dimethyl-2-((S)-2-(methylamino)propanamido)butanoyl)-5-(((R)-1,2,3,4-tetrahydronaphthalen-1-yl)carbamoyl)pyrrolidin-3-yl)carbamoyl)benzyl)-3,3-dimethyl-1,3-azasilolidine-5-carboxamide]?
Answer: IC50 [3]: 590 nM; IC50 [4]: 170 nM

Question: `CC[C@H](NC)C(=O)N[C@@H](Cc1ccc(NC(=O)c2ccc(C(=O)N[C@H]3C[C@@H](C(=O)N[C@@H]4CCCc5ccccc54)N(C(=O)[C@@H](NC(=O)[C@H](C)NC)C(C)(C)C)C3)cc2)cc1)C(=O)N1C[Si](C)(C)C[C@H]1C(=O)N[C@@H]1CCCc2ccccc21` [Example 11, N1-((3S,5S)-1-((S)-3,3-dimethyl-2-((S)-2-(methylamino)propanamido)butanoyl)-5-(((R)-1,2,3,4-tetrahydronaphthalen-1-yl)carbamoyl)pyrrolidin-3-yl)-N4-(4-((S)-3-((R)-3,3-dimethyl-5-(((R)-1,2,3,4-tetrahydronaphthalen-1-yl)carbamoyl)-1,3-azasilolidin-1-yl)-2-((S)-2-(methylamino)butanamido)-3-oxopropyl)phenyl)terephthalamide] was tested. Which IC50 [1] did it give?
Answer: Its IC50 is 6 nM.

Question: What about the IC50 [2] of the same compound?
Answer: Its IC50 is 30 nM.

Question: Which results are given for `CN[C@@H](C)C(=O)N[C@H](C(=O)N1C[C@@H](NC(=O)c2ccc(CN(C(=O)[C@@H]3C[Si](C)(C)CN3C(=O)[C@@H](NC(=O)[C@H](C)NC)C(C)(C)C)[C@H](C)c3ccccc3F)cc2)C[C@H]1C(=O)N[C@@H]1CCCc2ccccc21)C(C)(C)C` [Example 9, (R)-1-((S)-3,3-Dimethyl-2-((S)-2-(methylamino)propanamido)butanoyl)-N-(4-(((3S,5S)-1-((S)-3,3-dimethyl-2-((S)-2-(methylamino)propanamido)butanoyl)-5-(((R)-1,2,3,4-tetrahydronaphthalen-1-yl)carbamoyl)pyrrolidin-3-yl)carbamoyl)benzyl)-N—((R)-1-(2-fluorophenyl)ethyl)-3,3-dimethyl-1,3-azasilolidine-5-carboxamide]?
Answer: IC50 [1]: 9 nM; IC50 [2]: 52 nM
